The values that follow come from ChEMBL document CHEMBL1122711, “Design, synthesis, and testing of potential antisickling agents. 4. Structure-activity relationships of benzyloxy and phenoxy acids” (J Med Chem, 1984).

The conditions of series [1]: human, 10000 µM.
For series [2] the following is noted: human, 40000 µM.
Description: Solubility ratio ([HbS+drug (40 mM)]/[HbS-drug])
The conditions of series [3]: human, 20000 µM.
Description: Solubility ratio ([HbS+drug (20 mM)]/[HbS-drug]
For series [4] the following is noted: human, 5000 µM.
Description: Solubility ratio ([HbS+drug (5 mM)]/[HbS-drug])

Turning to `O=C(O)COc1c(Br)cc(Br)cc1Br`, the Solubility ratio was determined as 1.077 in series [1], 1.248 in series [2], 1.145 in series [3] and 1.018 in series [4].

As to `Cc1ccc(OCC(=O)O)c(Br)c1`, the Solubility ratio is recorded as 1.035 in series [1], 1.189 in series [2], 1.102 in series [3] and 1.031 in series [4].

Take `Cc1cc(C)c(C)c(OCC(=O)O)c1`: the Solubility ratio is on record as 1.086 in series [1], 1.351 in series [2], 1.18 in series [3] and 1.035 in series [4].

Regarding `CC(C)(OCc1ccc(Br)cc1)C(=O)O`, the Solubility ratio is 1.086 in series [1], 1.379 in series [2], 1.193 in series [3] and 1.048 in series [4].

`Cc1cc(OCC(=O)O)cc(C)c1Cl`: the Solubility ratio in series [1] worked out at 1.054; in series [2], 1.216; in series [3] it was 1.124; in series [4], 1.033.

As to `Cc1ccc(OCC(=O)O)cc1C`, the Solubility ratio in series [1] is reported as 1.06; in series [2], 1.243; in series [3] it was 1.118; in series [4], 1.027.

On to `O=C(O)COCc1ccc(Cl)cc1Cl`, for which the Solubility ratio in series [1] was found to be 1.13; in series [2], 1.246; in series [3], 1.295; in series [4], 1.079.

As to `O=C(O)C(CCc1ccccc1)C(=O)O`, the Solubility ratio in series [1] turned out to be 1.058; in series [2] it was 1.263; in series [3] it was 1.101; in series [4] it was 1.007.

Regarding `CN(C)c1ccc(OCC(=O)O)cc1.Cl`, the Solubility ratio came to 1.044 in series [1], 1.057 in series [2], 1.011 in series [3] and 1.022 in series [4].

As for `O=C(O)COc1ccc(Cl)cc1Cl` [2,4-DICHLOROPHENOXYACETIC ACID], the Solubility ratio in series [1] came out at 1.083; in series [2], 1.313; in series [3] it was 1.151; in series [4], 1.049.

Consider `CC(C)(Oc1ccc(CCNC(=O)c2ccc(Cl)cc2)cc1)C(=O)O` [BEZAFIBRATE], for which the Solubility ratio worked out at 0.932 in series [1], 1.198 in series [2], 0.981 in series [3] and 0.954 in series [4].

As to `CC(C)(Oc1ccc(Cl)cc1)C(=O)O` [CLOFIBRIC ACID], the Solubility ratio in series [1] turned out to be 1.064; in series [2], 1.302; in series [3], 1.155; in series [4] it was 1.018.

In the case of `Cc1ccc(C)c(OCCCC(C)(C)C(=O)O)c1` [GEMFIBROZIL], the Solubility ratio is listed as 1.073 in series [1], 1.234 in series [2], 1.117 in series [3] and 1.04 in series [4].

With `N[C@@H](Cc1ccccc1)C(=O)O` [PHENYLALANINE], the Solubility ratio in series [1] is recorded as 1.048; in series [2], 1.178; in series [3], 1.093; in series [4], 1.036.
